Laboratory results reported in ChEMBL document CHEMBL2203260, “Riccardin C derivatives as anti-MRSA agents: structure-activity relationship of a series of hydroxylated bis(bibenzyl)s” (2012).
≈ marks a conversion by molar mass, not a printed value.

What was measured:
Staphylococcus aureus [1] = test: Antibacterial activity against methicillin-resistant Staphylococcus aureus OM481 by two-fold liquid microdilution method; format: functional
Staphylococcus aureus [2] = test: Antibacterial activity against methicillin-resistant Staphylococcus aureus OM584 by two-fold liquid microdilution method; format: functional

Row | SMILES | MIC (Staphylococcus aureus [1]) | MIC (Staphylococcus aureus [2])
1 | Oc1ccc(CCc2cccc(O)c2)cc1 [LUNULARIN] | > 100 µg/mL | > 100 µg/mL
2 | Oc1ccc2c(c1)CCc1ccc(cc1)Oc1cc(ccc1O)CCc1ccc-2cc1 | 3.2 µg/mL (≈ 7.83 µM) | 3.2 µg/mL (≈ 7.83 µM)
3 | CC(=O)NC[C@H]1CN(c2ccc(N3CCOCC3)c(F)c2)C(=O)O1 [LINEZOLID] | 1 µg/mL (≈ 2.96 µM) | 1 µg/mL (≈ 2.96 µM)
4 | Oc1ccc2c(c1)CCc1ccc(cc1O)Oc1cc(ccc1O)CCc1ccc-2c(O)c1 | 8 µg/mL (≈ 18.2 µM) | 8 µg/mL (≈ 18.2 µM)
5 | COc1ccc2c(c1)CCc1ccc(cc1)Oc1cccc(c1)CCc1ccc-2cc1 | > 100 µg/mL | > 100 µg/mL
6 | Oc1ccc2c(c1)CCc1ccc(cc1)Oc1cccc(c1)CCc1ccc-2c(O)c1 | 3.2 µg/mL (≈ 7.83 µM) | 3.2 µg/mL (≈ 7.83 µM)
7 | Oc1ccc2c(c1)CCc1ccc(c(O)c1)Oc1cc(ccc1O)CCc1ccc-2c(O)c1 | 16 µg/mL (≈ 36.3 µM) | 16 µg/mL (≈ 36.3 µM)
8 | Oc1ccc2c(c1)CCc1ccc(cc1)Oc1cccc(c1)CCc1ccc-2cc1 | 1.6 µg/mL (≈ 4.08 µM) | > 100 µg/mL
9 | COc1cc2ccc1-c1ccccc1CCc1ccc(cc1)Oc1cccc(c1)CC2 | > 100 µg/mL | > 100 µg/mL
10 | COc1ccc2cc1Oc1ccc(cc1)CCc1ccccc1-c1ccc(cc1)CC2 | > 100 µg/mL | > 100 µg/mL
11 | Oc1ccccc1Oc1ccccc1 | 6.25 µg/mL (≈ 33.6 µM) | 6.25 µg/mL (≈ 33.6 µM)
12 | Oc1ccc(-c2ccccc2O)cc1 | > 100 µg/mL | > 100 µg/mL
13 | Oc1ccc2c(c1)CCc1ccc(cc1)Oc1cc(ccc1O)CCc1ccc-2c(O)c1 [RICCARDI C] | 3.2 µg/mL (≈ 7.54 µM) | 3.2 µg/mL (≈ 7.54 µM)
14 | Oc1cc2ccc1-c1ccccc1CCc1ccc(cc1)Oc1cccc(c1)CC2 | 3.2 µg/mL (≈ 8.15 µM) | > 100 µg/mL
15 | Oc1ccc2cc1Oc1ccc(cc1)CCc1ccccc1-c1ccc(cc1)CC2 | > 100 µg/mL | > 100 µg/mL
16 | Oc1ccc2cc1Oc1ccc(cc1)CCc1ccccc1-c1ccc(cc1O)CC2 | 3.2 µg/mL (≈ 7.83 µM) | 3.2 µg/mL (≈ 7.83 µM)
